Results as given in patent publication US20080176923A1, “Proline Derivatives Used as Pharmaceutical Active Ingredients for the Treatment of Tumors” (priority 2003, published 2008).
In brackets after ≈: the same amount, converted by molar mass. Read-outs that look alike come from different tables or passages of the source.

Experiments:
[1] = system: MIA-PaCa2 pancreas tumor cell line; assay: tumor cell proliferation test (EZ4U tetrazolium), MIA-PaCa2; assay type: cell-based; conditions: Homo sapiens; for inhibition at 200 µg/mL / inhibition at 400 µg/mL: MIA PaCa-2, 96 h, 4 days, read-out: inhibition of cellular proliferation; for inhibition at 200 µg/mL: MIA-PaCa2, 200 μg/ml; for inhibition at 400 µg/mL: MIA-PaCa2, 400 μg/ml
Procedure: (§1) The compounds of the invention were tested using the pancreas tumor cell lines MIYPaCa2 and BxPC3, the breast cancer cell lines MDA-MB-435 and BT20, as well as the colon cancer cell lines Colo205 and HT29. The cells were placed in culture medium (RPMI-1640 with 10% fetal calf serum and 4 mM glutamine) in 96-well microtiter plates to make 10,000 cells per well. The inventive components to be tested were diluted in microtiter plates according to the well-known procedure and incubated for 4 days under cell culture conditions (37° C., 5% CO2).
(§2) Following incubation, the proliferation was tested using a tetrazolium-based EZ4U kit from Biomedica (Vienna, Austria). The optical density (OD) of each well was determined by means of an ELISA Reader, and the control medium obtained was set to 100% (OD490 nm=0.5 to 1.5). The values in Table 1 are given in %, showing the inhibition of cellular proliferation, the concentration being 400 μg/ml (higher value) and 200 μg/ml (lower value).
(§3) Furthermore, (R)-(+)-α,α-diphenyl-2-pyrrolidinemethanol and (S)-(−)-α,α-diphenyl-2-pyrrolidinemethanol were tested. […] The results are given as IC50 (μg/ml).

[2] = system: Colo205 colon cancer cell line; assay: tumor cell proliferation test (EZ4U tetrazolium), Colo205; assay type: cell-based; conditions: for IC50 / inhibition at 200 µg/mL / inhibition at 400 µg/mL: Homo sapiens; for IC50: COLO 205; for inhibition at 200 µg/mL / inhibition at 400 µg/mL: COLO 205, 96 h, 4 days, read-out: inhibition of cellular proliferation; for inhibition at 200 µg/mL: Colo205, 200 μg/ml; for inhibition at 400 µg/mL: Colo205, 400 μg/ml
Procedure: as §1, §2
(§4) In further tests, substances were dissolved in water, and their effect on the colon adenocarcinoma cell line Colo205 and pancreas adenocarcinoma cell line BxPC3 as targets was tested. The results obtained, in IC50 concentrations in μg/ml, are illustrated in Table 2.
(§5) A proliferation test—as described above—with an initial dilution of 400 μg/ml was carried out, either alone or in combination with 400, 200 or 100 μg of CHP. The cell lines used are illustrated in Table 3. […] Frequently, the proliferation is increased, or the inhibition achieved with specific substances is lower when using combined agents. The effect of CHP alone is shown on the left in the table, below each specified cell line, for the highest concentration of CHP (400 μg/ml).
as §3

[3] = system: BxPC3 pancreas tumor cell line; assay: tumor cell proliferation test (EZ4U tetrazolium), BxPC3; assay type: cell-based; conditions: for IC50 / inhibition at 200 µg/mL / inhibition at 400 µg/mL: Homo sapiens; for IC50: BXPC-3; for inhibition at 200 µg/mL / inhibition at 400 µg/mL: BXPC-3, 96 h, 4 days, read-out: inhibition of cellular proliferation; for inhibition at 200 µg/mL: BxPC3, 200 μg/ml; for inhibition at 400 µg/mL: BxPC3, 400 μg/ml
Procedure: as §1, §2, §4, §3

[4] = system: T47D breast cancer cell line; assay: tumor cell proliferation test, T47D; assay type: cell-based; conditions: Homo sapiens
Procedure: as §1, §2, §5, §3

Pana -1 pancreas cancer = assay: tumor cell proliferation test, Pana -1; assay type: cell-based
Procedure: as §1, §2, §3

[5] = system: MDA-MB435 breast cancer cell line; assay: tumor cell proliferation test (EZ4U tetrazolium), MDA-MB435; assay type: cell-based; conditions: Homo sapiens, MDA-MB-435, 96 h, 4 days, read-out: inhibition of cellular proliferation; for inhibition at 200 µg/mL: MDA-MB435, 200 μg/ml; for inhibition at 400 µg/mL: MDA-MB435, 400 μg/ml
Procedure: as §1, §2

[6] = system: BT20 breast cancer cell line; assay: tumor cell proliferation test (EZ4U tetrazolium), BT20; assay type: cell-based; conditions: Homo sapiens, BT-20, 96 h, 4 days, read-out: inhibition of cellular proliferation; for inhibition at 200 µg/mL: BT20, 200 μg/ml; for inhibition at 400 µg/mL: BT20, 400 μg/ml
Procedure: as §1, §2

[7] = system: HT29 colon cancer cell line; assay: tumor cell proliferation test (EZ4U tetrazolium), HT29; assay type: cell-based; conditions: Homo sapiens, HT-29, 96 h, 4 days, read-out: inhibition of cellular proliferation; for inhibition at 200 µg/mL: HT29, 200 μg/ml; for inhibition at 400 µg/mL: HT29, 400 μg/ml
Procedure: as §1, §2

[8] = system: all 6 cell lines (MIA-PaCa2, Colo205, BxPC3, MDA-MB435, BT20, HT29); assay: tumor cell proliferation test, mean value for all 6 cell lines; assay type: cell-based; conditions: 400 μg/ml; read-out: inhibition; mean value±SEM for all 6 cell lines
Procedure: as §1, §2

[9] = substances dissolved in water, read-out: IC50 Colo205
[10] = substances dissolved in water, read-out: IC50 BxPC3

| Compound | inhibition at 200 µg/mL [1] [%] | inhibition at 400 µg/mL [1] [%] | inhibition at 200 µg/mL [2] [%] | inhibition at 400 µg/mL [2] [%] | inhibition at 200 µg/mL [3] [%] | inhibition at 400 µg/mL [3] [%] | inhibition at 200 µg/mL [5] [%] | inhibition at 400 µg/mL [5] [%] | inhibition at 200 µg/mL [6] [%] | inhibition at 400 µg/mL [6] [%] | inhibition at 200 µg/mL [7] [%] | inhibition at 400 µg/mL [7] [%] | inhibition at 400 µg/mL [8] [%] | further results |
| --- | --- | --- | --- | --- | --- | --- | --- | --- | --- | --- | --- | --- | --- | --- |
| OC(c1ccccc1)(c1ccccc1)[C@H]1CCCN1 [Substance 231.01, (R)-(+)-α,α-diphenyl-2-pyrrolidinemethanol] |  |  |  |  |  |  |  |  |  |  |  |  |  | IC50 ([1]; MIA PaCa-2): 50 µg/mL (≈ 197 µM); IC50 [2]: 45 µg/mL; IC50 [3]: 60 µg/mL (≈ 237 µM); IC50 [4]: 130 µg/mL; IC50 (Pana -1 pancreas cancer): 80 µg/mL (≈ 316 µM) |
| CC(C)COC(=O)[C@@H]1CC(O)CN1C (stereo partly drawn) [Substance A2.21, 4-hydroxy-1-methylproline isobutyl ester] | 4.5 | 23.9 | 14.1 | 10 | 18.2 | 4.9 | 4.5 | 3.1 | 5.2 | 3.9 | 4.1 | 1.3 | < 8 |  |
| CC(C)COC(=O)C1CC(O)CN1 [Substance A2, cis-hydroxy-L-proline isobutyl ester] |  |  |  |  |  |  |  |  |  |  |  |  |  | IC50 [2, 9]: 18 µg/mL; IC50 [3, 10]: 15 µg/mL (≈ 80.1 µM); melting point: 139 °C |
| CCOC(=O)C1CC(O)C[N+]1(C)C (stereo not drawn) [Substance A1-01, 4-hydroxy-1,1-dimethylproline ethyl ester iodide] |  |  |  |  |  |  |  |  |  |  |  |  |  | IC50 [2, 9]: > 400 µg/mL; IC50 [3, 10]: 70 µg/mL |
| CCOC(=O)[C@@H]1CC(OC(=O)Nc2ccccc2)CN1C (stereo partly drawn) [Substance A1.23, 1-methyl-4-phenylaminocarbonyloxyproline ethyl ester] | 16 | 8.3 | 17.2 | 7.3 | 17.8 | 0 | 8.7 | 4.5 | 4.4 | 1.3 | 8.5 | 1.9 | < 8 |  |
| CCOC(=O)[C@@H]1CC(O)CN1C (stereo partly drawn) [Substance A1.21, 4-hydroxy-1-methylproline ethyl ester] | 7.4 | 38.8 | 23.7 | 32.7 | 25 | 13.4 | 15.6 | 53.5 | 22.2 | 80.1 | 7.3 | 0.5 | 36.5 ± 11.4 |  |
| 4-hydroxy-1,1-dimethylproline isobutyl ester iodide [Substance A2-01] |  |  |  |  |  |  |  |  |  |  |  |  |  | IC50 Colo205 ([2]; substances dissolved in water): >400 µg/mL; IC50 BxPC3 ([3]; substances dissolved in water): 50 µg/mL |
